# According to patent US20160375155A1, “Collagen Imaging Compositions” (Collagen Medical, LLC, priority 2015, published 2016):
# Key:
# [1] = Relaxivity in PBS (Bruker mq60, 60 MHz); format: physicochemical; details: pH 7.4 PBS at 1.4 T, 37° C.
# Method: The relaxivity of Compound ID Nos. 1, 2 and 4 were determined in PBS at 37° C. using a Bruker mq60 spectrometer operating at 60 MHz (1.4 tesla). Samples were equilibrated at concentrations ranging from 0-200 μM for at least 30 minutes at 37° C. T1 was measured using an inversion recovery sequence. Relaxivities were calculated by subtracting the relaxation rate of the buffer […] and then dividing the result by the concentration of Compound.
# [2] = molecular target: Native canine Collagen Type I and III protein; test: Collagen binding assay, dried dog collagen plate; details: 37° C., pH 7.4; collagen 5 μM; fit to 1 binding site
# Method: Canine collagen (Native canine Collagen Type I and III protein, YO protein AB, cat#739) is dissolved in 0.5 M acetic acid at 3.3 mg/ml by vortexing and shaking overnight at 4° C. The solution is then dialyzed against 10 mM Phosphate (NaH2PO4), pH 4.2 at 4° C. with three changes of the dialysis buffer.
# Ice-cold 1×PBS pH 10.8 is added to the collagen solution for a final collagen concentration of 10 μM, pH 7.4. Collagen solutions are gelled and dried down in the wells of a 96 well microtiter plate (Corning Polystyrene Flat Bottom, cat#3641). 70 μl of 10 μM collagen is aliquoted into each well in every other lane in the plate (48 wells) and the plate is incubated at 37° C. for 18 hours to form a gel and evaporate to dryness. Ungelled collagen is removed by washing the collagen films with 200 μl 1×PBS pH 7.4 (four times, 15 min per wash). The thin collagen fibril film remains, coating the bottom of each well. After washing by PBS the plate is again dried at 37° C. for 2 hours and is stored at −20° C. The final well content of gelled collagen is measured by determination of hydroxyproline and is around 180 μg/ml.
# a serial dilution of 0.2 μM-30 μM of the peptide chelate is prepared in PBS, pH 7.4 (˜300 μL of solution for each concentration). 90 μl of each concentration is also reserved in a HPLC glass vial as a sample to measure the total concentration. 140 μL of each dilution of peptide chelate is added to wells containing and non-containing collagen (control for nonspecific plastic binging). The plate is then incubated on a shaker table (300 rpm) for 2 hours at room temperature to allow the compound to bind. […] The concentration of free, unbound compound in the sample supernatants and the concentration of compound in the reserved (total) sample are determined by ICP-MS (Agilent 7500, gadolinium concentration). The concentration of compound bound to collagen is determined as [bound]=[total]−[unbound].
# The binding of compounds to human, rat and dog collagen (5 μM) was measured over the concentration range 0.2-5 μM of Comp ID Nos.: 1-4. […]
# myocardial collagen = details: rat MI model, healthy and infarcted heart
# Method: Myocardial infarction was induced in Sprague Dawley rats by occlusion of the left anterior descending coronary artery followed by reperfusion. The rats were anesthetized with an intraperitoneal (i.p.) injection of 100 μg pentobarbital sodium per gram body weight and a thorocotamy was performed. The pericardium was removed and the left anterior artery was sutured with a 7.0 silk suture for 60 minutes after which reperfusion was established.
# Animals were sacrificed at 60 minutes post-injection and the heart removed and sectioned for analysis.
# The slope for this correlation is a measure of efficacy.
smiles,measurement,setting,value
CC(C)C[C@H](NC(=O)[C@@H]1CSSC[C@H](NC(=O)[C@H](Cc2c[nH]cn2)NC(=O)[C@H](Cc2c[nH]c3ccccc23)NC(=O)[C@H](CCCCNC(=O)CC[C@H](C(=O)O)N2CCN(CC(=O)O)CCN(CC(=O)O)CCN(CC(=O)O)CC2)NC(=O)CNC(=O)CC[C@H](C(=O)O)N2CCN(CC(=O)O)CCN(CC(=O)O)CCN(CC(=O)O)CC2)C(=O)N[C@@H]([C@@H](C)O)C(=O)N[C@@H]([C@@H](C)O)C(=O)N[C@@H](CCCCNC(=O)CC[C@H](C(=O)O)N2CCN(CC(=O)O)CCN(CC(=O)O)CCN(CC(=O)O)CC2)C(=O)N[C@@H](Cc2ccccc2)C(=O)N2CCC[C@H]2C(=O)N[C@@H](Cc2c[nH]cn2)C(=O)N[C@@H](Cc2c[nH]cn2)C(=O)N[C@@H](Cc2ccc(O)cc2)C(=O)N1)C(=O)N[C@@H](Cc1ccc(O)cc1)C(=O)N[C@@H](Cc1ccc(-c2ccccc2)cc1)C(N)=O [Compound ID No. 1],R1 (relaxivity),[1],43.4 mM⁻¹ s⁻¹
same,Kd,[2],4.4 µM
same,"calculated slope, hydroxyproline vs. gadolinium concentration",myocardial collagen,8498
